# Tested on: anti-CD28 scFv
# Assay: Phage binding ELISA (panning) of clonal phage on anti-CD28 scFv, with or without CD28 soluble protein
# Conditions: for Phage binding ELISA Backgroud signal / Backgroud signal: clonal phage supernatant; for Backgroud signal / CD28 scFv signal in presence of CD28 / CD28 scFv signal: Phage binding ELISA; for Backgroud signal: background wells; for CD28 scFv signal in presence of CD28: captured anti-CD28 scFv pre-incubated with CD28 soluble protein; for CD28 scFv signal: captured biotinylated anti-CD28 scFv; for CD28 scFv signal / Phage binding ELISA CD28 scFv signal: blocking buffer alone; for Phage binding ELISA CD28 scFv signal in presence of CD28: clonal phage supernatant on captured anti-CD28 scFv pre-incubated with CD28 soluble protein; for Phage binding ELISA CD28 scFv signal: clonal phage supernatant on captured biotinylated anti-CD28 scFv
# Description: Clonal phage were harvested as crude supernatants and screened via standard enzyme linked immunosorbent assays (ELISAs). […] Prior to the addition of clonal phage, wells were incubated with blocking buffer and CD28 soluble protein or blocking buffer alone. Without washing or aspirating, clonal phage supernatants were then added to the wells and incubated for a short time. Wells were then washed followed by detection of bound phage using a horse radish peroxidase conjugated anti-M13 antibody. Clonal phage of interest were then sent for sequence analysis.
# [1] = background (no anti-CD28 scFv signal)
Substance,Phage binding ELISA Backgroud signal (background signal),further results
Phage-51 (MDWCPMDLWDYCFN),0.071,–
Phage-134 (MDWCPSYLWHECFA),–,Backgroud signal: 0.096
Phage-99 (MDWCPRYLWNMCFH),–,CD28 scFv signal in presence of CD28: 0.404; CD28 scFv signal: 2.564; Backgroud signal: 0.114
Phage-212 (MDWCPRAMWDKCFF),0.073,–
Phage-128 (MDWCPRDLWIECFF),–,Backgroud signal: 0.084
Phage-307 (MDWCPRYLWPVCFH),0.179,–
Phage-244 (MDWCPRYLWHECFD),0.071,–
Phage-200 (MFWCPFDMWHFCFN),0.150,–
Phage-78 (MDWCPRHLWHECFN),0.070,Phage binding ELISA CD28 scFv signal in presence of CD28: 0.704; Phage binding ELISA CD28 scFv signal: 2.654
Phage-352 (MDWCPIHLWYECFN),0.080,–
Phage-405 (MDWCPMSMWAFCFD),–,Phage binding ELISA Backgroud signal [1]: 0.102
Phage-404 (MDWCPRDMWTSCFN),–,Phage binding ELISA Backgroud signal [1]: 0.100
Phage-122 (MDWCPRDLWDQCYA),–,Backgroud signal: 0.059
Phage-125 (MDWCPVSLWHVCFY),–,Backgroud signal: 0.107
Phage-231 (VPWCLIISGLDCLN),0.455,–
Phage-245 (MDWCPRNLWHLCFA),0.082,–
Phage-344 (MDWCPRHLWVHCFS),0.096,–
Phage-45 (MDWCPRPLWHECFS),0.078,–
Phage-93 (MDWCPRYLWTVCFS),–,CD28 scFv signal in presence of CD28: 0.372; CD28 scFv signal: 2.582; Backgroud signal: 0.115
Phage-126 (MDWCPRFLWNECFN),–,Backgroud signal: 0.072
Phage-160 (MHWCPRALWHECFN),0.070,–
Phage-364 (MDWCPRSLWAQCFY),0.067,–

Substance,Phage binding ELISA Backgroud signal (background signal),further results
Phage-211 (MDWCPRNMWTVCFL),0.060,–
Phage-57 (MDWCPRHRWVDCFY),0.073,–
Phage-254 (MDWCPRYLWSECFA),0.078,–
Phage-143 (LDWCPLNLWDLCYF),–,Backgroud signal: 0.062
Phage-65 (MDWCPMYLWNECFN),0.064,Phage binding ELISA CD28 scFv signal in presence of CD28: 0.471; Phage binding ELISA CD28 scFv signal: 2.609
Phage-417 (IYWCPTAMWNRCSA),–,Phage binding ELISA Backgroud signal [1]: 0.086
Phage-453 (MDWCPSDYWYVCFA),0.065,–
Phage-205 (MDWCPTDMWHHCFL),0.061,–
Phage-190 (MDWCPRDMWAECFF),0.099,–
Phage-332 (IDWCPRALWDACLA),0.269,–
Phage-193 (MDWCPMDMWVNCFN),0.059,–
Phage-169 (MDWCPRDLWNVCFN),0.100,–
Phage-388 (MDWCPRFMWNFCFF),–,Phage binding ELISA Backgroud signal [1]: 2.200
Phage-196 (MDWCPRYMWYQCFS),0.079,–
Phage-236 (MDWCPRDLWNLCFF),0.084,–
Phage-153 (MDWCPRHLWDLCFF),–,Backgroud signal: 0.093
Phage-375 (MNWCPRALWHECFL),0.085,–
Phage-322 (MDWCPRHLWIECFN),0.339,–
Phage-335 (MDWCPRFLWDYCFA),0.146,–
Phage-422 (MYWCPINMWDYCYA),–,Phage binding ELISA Backgroud signal [1]: 0.122
Phage-230 (APWCQIISGLECLT),0.080,–
Phage-73 (MDWCPRALWHECFN),0.071,–
